From patent US6730669B2, “Amino acid hydroxyethylamino sulfonamide retroviral protease inhibitors” (G. D. Searle & Co., priority 1995, dated 2004)

What was measured:
HIV-1 = assay: CEM cell assay: HIV inhibition assay of acutely infected cells (tetrazolium based colorimetric, MTT); conditions: Human immunodeficiency virus 1, CCRF-CEM, 168 h; Table 21; CEM cells acutely infected with HIV-1, 7 days, MTT readout
Protocol: The effectiveness of various compounds were determined in the above-described enzyme assay and in a CEM cell assay. The HIV inhibition assay method of acutely infected cells is an automated tetrazolium based colorimetric assay essentially that reported by Pauwles et al, J. Virol. Methods, 20, 309-321 (1988). Assays were performed in 96-well tissue culture plates. CEM cells, a CD4+cell line, were grown in RPMI-1640 medium (Gibco) supplemented with a 10% fetal calf serum and were then treated with polybrene (2 μg/ml). An 80 μl volume of medium containing 1×10^4 cells was dispensed into each well of the tissue culture plate. To each well was added a 100 μl volume of test compound dissolved in tissue culture medium (or medium without test compound as a control) to achieve the desired final concentration and the cells were incubated at 37° C. for 1 hour. A frozen culture of HIV-1 was diluted in culture medium to a concentration of 5×10^4 TCID50 per ml (TCID50=the dose of virus that infects 50% of cells in tissue culture), and a 20 μL volume of the virus sample (containing 1000 TCID50 of virus) was added to wells containing test compound and to wells containing only medium (infected control cells). Several wells received culture medium without virus (uninfected control cells). Likewise, the intrinsic toxicity of the test compound was determined by adding medium without virus to several wells containing test compound. In summary, the tissue culture plates contained the following experiments:
In experiments 2 and 4 the final concentrations of test compounds were 1, 10, 100 and 500 μg/ml. Either azidothymidine (AZT) or dideoxyinosine (ddI) was included as a positive drug control. […] DMSO was added to all control wells at an appropriate concentration.
Following the addition of virus, cells were incubated at 37° C. in a humidified, 5% CO2 atmosphere for 7 days. Test compounds could be added on days 0, 2 and 5 if desired. On day 7, post-infection, the cells in each well were resuspended and a 100 μl sample of each cell suspension was removed for assay. A 20 μL volume of a 5 mg/ml solution of 3-(4,5-dimethylthiazol-2-yl)-2,5-diphenyltetrazolium bromide (MTT) was added to each […] cell suspension, and the cells were incubated for 4 hours at […] in a 5% CO2 environment. […] To each sample was added 100 μl of 10% sodium dodecylsulfate in 0.01 N HCl to lyse the cells, and samples were incubated overnight. The absorbance at 590 nm was determined for each sample using a Molecular Devices microplate reader. Absorbance values for each set of wells is compared to assess viral control infection, uninfected control cell response as well as test compound by cytotoxicity and antiviral efficacy.

HIV protease = molecular target: T1, HIV protease (Human immunodeficiency virus type 1 group M subtype B, UniProt P04585); assay: HIV protease enzyme assay (fluorescence, substrate 2-Ile-Nle-Phe(p-NO2)-Gln-ArgNH2); format: biochemical; conditions: 12.3 nanomolar enzyme, pH 6.4
T1 construct: HIV protease is diluted in the assay buffer to a final enzyme concentration of 12.3 nanomolar, based on a molecular weight of 10,780
Protocol: The compounds of the present invention are effective HIV protease inhibitors. Utilizing an enzyme assay as described below, the compounds set forth in the examples herein disclosed inhibited the HIV enzyme. […] The enzyme method is described below. The substrate is 2-Ile-Nle-Phe(p-NO2)-Gln-ArgNH2. The positive control is MVT-101 (Miller, M. et al, Science, 246, 1149 (1989)] The assay conditions are as follows:
20 mM sodium phosphate, pH 6.4
The above described substrate is dissolved in DMSO, then diluted 10 fold in assay buffer. Final substrate concentration in the assay is 80 μM. HIV protease is diluted in the assay buffer to a final enzyme concentration of 12.3 nanomolar, based on a molecular weight of 10,780.
The final concentration of DMSO is 14% and the final concentration of glycerol is 18%. The test compound is dissolved in DMSO and diluted in DMSO to 10× the test concentration; 10 μl of the enzyme preparation is added, the materials mixed and then the mixture is incubated at ambient temperature for 15 minutes. The enzyme reaction is initiated by the addition of 40 μl of substrate. The increase in fluorescence is monitored at 4 time points (0, 8, 16 and 24 minutes) at ambient temperature. Each assay is carried out in duplicate wells.

Row | Structure (SMILES) | EC50 (HIV-1) [nM] | IC50 (HIV protease; Table 21, 80 μM substrate) [nM] | IC50 (HIV protease; Table 20, 80 μM substrate) [nM]
1 | CC(C)CN(C[C@@H](O)[C@H](Cc1ccccc1)NC(=O)[C@@H](NC(=O)CN1CCCC1)C(C)(C)C)S(=O)(=O)c1ccc2c(c1)OCO2 [Entry 1] | 7 | 3 | 
2 | CCC(C)[C@H](NC(=O)CN1CCCC1)C(=O)N[C@@H](Cc1ccccc1)[C@H](O)CN(CC(C)C)S(=O)(=O)c1ccccc1 (stereo partly shown) [Entry 1] |  |  | 4
3 | CCC(C)[C@H](NC(=O)CN1CCCC1)C(=O)N[C@@H](Cc1ccccc1)[C@H](O)CN(CC(C)C)S(=O)(=O)c1ccc2c(c1)CCO2 (stereo partly shown) [Entry 2] |  |  | 2
4 | CCC(C)[C@H](NC(=O)CN1CCCC1)C(=O)N[C@@H](Cc1ccccc1)[C@H](O)CN(CC(C)C)S(=O)(=O)c1ccc2c(c1)OCO2 (stereo partly shown) [Entry 2] | 12 | 3 | 
5 | CC(C)CN(C[C@@H](O)[C@H](Cc1ccccc1)NC(=O)[C@H](CS(C)(=O)=O)NC(=O)CN1CCCC1)S(=O)(=O)c1ccc2c(c1)OCO2 [Entry 3] | 120 | 8 | 
6 | CC(C)CN(C[C@@H](O)[C@H](Cc1ccccc1)NC(=O)[C@@H](NC(=O)CN1CCCC1)C(C)(C)C)S(=O)(=O)c1ccccc1 [Entry 4] | 12 | 4 | 
7 | COc1ccc(S(=O)(=O)N(CC(C)C)C[C@@H](O)[C@H](Cc2ccccc2)NC(=O)[C@@H](NC(=O)CN2CCCC2)C(C)(C)C)cc1 [Entry 5] | 5 | 3 | 
8 | CC(C)CN(C[C@@H](O)[C@H](Cc1ccccc1)NC(=O)[C@@H](NC(=O)CN1CCCC1)C(C)C)S(=O)(=O)c1ccc2c(c1)OCO2 [Entry 6] | 6 | 3 | 
9 | COC(=O)Nc1nc2cc(S(=O)(=O)N(CC(C)C)C[C@@H](O)[C@H](Cc3ccccc3)NC(=O)[C@@H](NC(=O)CN3CCCC3)C(C)(C)C)ccc2[nH]1 [Entry 7] | 29 | 2 | 
10 | CC(C)CN(C[C@@H](O)[C@H](Cc1ccccc1)NC(=O)[C@@H](NC(=O)CN1CCCC1)C(C)(C)C)S(=O)(=O)c1ccc2ncsc2c1 [Entry 8] | 16 | 3 | 
11 | CCC(C)[C@H](NC(=O)CN1CCCC1)C(=O)N[C@@H](Cc1ccccc1)[C@H](O)CN(CC(C)C)S(=O)(=O)c1ccc(OC)cc1 (stereo partly shown) [Entry 9] | 16 | 3 | 
12 | CC(C)CN(C[C@@H](O)[C@H](Cc1ccccc1)NC(=O)[C@@H](NC(=O)CN1CCCC1)C(C)(C)S(C)(=O)=O)S(=O)(=O)c1ccc2c(c1)OCO2 [Entry 10] | 39 | 4 | 
13 | CC(C)CN(C[C@@H](O)[C@H](Cc1ccccc1)NC(=O)[C@@H](NC(=O)CN1CCCC1)C(C)(C)C)S(=O)(=O)c1ccc2c(c1)CCO2 [Entry 11] | 21 | 4 | 
14 | C#CC[C@H](NC(=O)CN1CCCC1)C(=O)N[C@@H](Cc1ccccc1)[C@H](O)CN(CC(C)C)S(=O)(=O)c1ccc2c(c1)OCO2 [Entry 12] | 11 | 2 | 
15 | COc1ccc(S(=O)(=O)N(CC(C)C)C[C@@H](O)[C@H](Cc2ccccc2)NC(=O)[C@@H](NC(=O)CN2CCCC2)C(C)C)cc1 [Entry 13] | 18 | 3 | 
